Legend:
GCGR [1] = target: GCGR (Homo sapiens, UniProt P47871, W87A); test: Whole-cell binding assay, competition with 125I-GCG; parameters: V5 (C); 6×His (C); expressed in transfected cells; host or cells: CHO-K1; conditions: GCGR W87A, CHO-K1
How it was run: (§1)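 CHO-K1 cells transiently transfected with WT or mutant receptor constructs, washed in F-12 with 0.1% BSA or casein/33 mM HEPES and incubated 2 h at 37 °C. Bound radioactivity counted after Triton lysis; data normalized to WT and fitted to a three-parameter logistic equation.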

GCGR [2] = target: GCGR (Homo sapiens, UniProt P47871, Y145A); test: as above; parameters: V5 (C); 6×His (C); expressed in transfected cells; host or cells: CHO-K1; conditions: GCGR Y145A, CHO-K1
Chain of GCGR (Homo sapiens, UniProt P47871, Y145A) (P47871 26-477 Y145A): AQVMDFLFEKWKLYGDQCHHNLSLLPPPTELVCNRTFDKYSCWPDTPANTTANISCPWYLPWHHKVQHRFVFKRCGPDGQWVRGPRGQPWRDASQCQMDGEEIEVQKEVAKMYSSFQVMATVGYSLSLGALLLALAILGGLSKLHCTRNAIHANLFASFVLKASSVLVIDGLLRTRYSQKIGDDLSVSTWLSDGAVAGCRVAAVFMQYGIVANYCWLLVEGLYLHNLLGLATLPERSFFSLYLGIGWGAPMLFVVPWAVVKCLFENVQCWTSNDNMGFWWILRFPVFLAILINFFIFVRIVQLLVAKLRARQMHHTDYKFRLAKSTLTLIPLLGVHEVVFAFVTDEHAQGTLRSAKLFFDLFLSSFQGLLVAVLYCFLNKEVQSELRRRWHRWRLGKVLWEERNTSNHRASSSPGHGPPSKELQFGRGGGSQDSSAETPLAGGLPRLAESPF
How it was run: as §1

GCGR [3] = target: GCGR (Homo sapiens, UniProt P47871, D195A); test: as above; parameters: V5 (C); 6×His (C); expressed in transfected cells; host or cells: CHO-K1; conditions: GCGR D195A; CHO-K1; read-out: binding pIC50 (converted)
Chain of GCGR (Homo sapiens, UniProt P47871, D195A) (P47871 26-477 D195A): as the sequence (P47871 26-477 Y145A) above, with A120Y, D170A counted along it
How it was run: as §1

GCGR [4] = target: GCGR (Homo sapiens, UniProt P47871, K205A); test: as above; parameters: V5 (C); 6×His (C); expressed in transfected cells; host or cells: CHO-K1; conditions: GCGR K205A, CHO-K1
Chain of GCGR (Homo sapiens, UniProt P47871, K205A) (P47871 26-477 K205A): as the sequence (P47871 26-477 Y145A) above, with A120Y, K180A counted along it
How it was run: as §1

GCGR [5] = target: GCGR (Homo sapiens, UniProt P47871, Q293A); test: as above; parameters: V5 (C); 6×His (C); expressed in transfected cells; host or cells: CHO-K1; conditions: GCGR Q293A, CHO-K1
Chain of GCGR (Homo sapiens, UniProt P47871, Q293A) (P47871 26-477 Q293A): as the sequence (P47871 26-477 Y145A) above, with A120Y, Q268A counted along it
How it was run: as §1

GCGR [6] = target: GCGR (Homo sapiens, UniProt P47871, Q131A); test: as above; parameters: V5 (C); 6×His (C); expressed in transfected cells; host or cells: CHO-K1; conditions: GCGR Q131A, CHO-K1
Chain of GCGR (Homo sapiens, UniProt P47871, Q131A) (P47871 26-477 Q131A): as the sequence (P47871 26-477 Y145A) above, with Q106A, A120Y counted along it
How it was run: as §1

GCGR [7] = target: GCGR (Homo sapiens, UniProt P47871, Y138A); test: as above; parameters: V5 (C); 6×His (C); expressed in transfected cells; host or cells: CHO-K1; conditions: GCGR Y138A, CHO-K1
Chain of GCGR (Homo sapiens, UniProt P47871, Y138A) (P47871 26-477 Y138A): as the sequence (P47871 26-477 Y145A) above, with Y113A, A120Y counted along it
How it was run: as §1

GCGR [8] = test: cAMP accumulation assay, GCGR WT, mutant or modified constructs; type: cell-based, human; conditions: GCGR triple mutant (Q142A + D195A + R199A) vs WT
Protocol: Human embryonic kidney 293 cells containing SV40 large T-antigen (HEK293T) were cultured in DMEM (Gibco) supplemented with 10% (v/v) fetal bovine serum (FBS, Gibco), 1 mM sodium pyruvate (Gibco) and 100 units/mL penicillin and 100 μg/mL streptomycin at 37 °C in 5% CO2. Chinese hamster ovary (CHO-K1) cells were cultured in F-12 (Gibco) containing 10% FBS, 100 units/mL penicillin and 100 μg/mL streptomycin at 37 °C in 5% CO2. For cAMP and receptor expression assays, HEK293T cells were seeded into 6-well cell culture plates at a density of 7 × 10^5 cells per well. After overnight incubation, cells were transfected with GIPR, GLP-1R or GCGR construct using Lipofectamine 2000 or Lipofectamine 3000 transfection reagent (Invitrogen). For whole-cell binding assay, CHO-K1 cells were seeded into 96-well fibronectin-treated cell culture plates at a density of 3 × 10^4 cells per well. After overnight incubation, cells were transfected with GIPR, GLP-1R or GCGR construct using Lipofectamine 2000 transfection reagent (Invitrogen). Following 24 h culturing, the transfected cells were ready for use. […]
For GIPR, GLP-1R and GCGR, multi-targeting agonist stimulated cAMP accumulation was measured by a LANCE Ultra cAMP kit (PerkinElmer). […] Plates were incubated at RT for 1 h and the fluorescence intensity measured at 620 nm and […] by an EnVision multilabel plate reader (PerkinElmer).

[9] = read-out: binding pIC50 (converted)

Chain of GCGR (Homo sapiens, UniProt P47871, W87A) (P47871 26-477 W87A): as the sequence (P47871 26-477 Y145A) above, with W62A, A120Y counted along it

`CCCCCCCCCCCCCCCC(=O)N[C@@H](CCC(=O)NCCCC[C@H](NC(=O)[C@H](CC(=O)O)NC(=O)[C@H](CO)NC(=O)[C@@H](NC(=O)[C@H](Cc1ccccc1)NC(=O)[C@@H](NC(=O)CNC(=O)[C@H](CCC(N)=O)NC(=O)C(C)(C)NC(=O)[C@@H](N)Cc1c[nH]cn1)[C@@H](C)O)[C@@H](C)O)C(=O)N[C@@H](CO)C(=O)N[C@@H](CCCCN)C(=O)N[C@@H](Cc1ccc(O)cc1)C(=O)N[C@@H](CC(C)C)C(=O)N[C@@H](CC(=O)O)C(=O)N[C@@H](CCC(=O)O)C(=O)N[C@@H](CCCNC(=N)N)C(=O)N[C@@H](C)C(=O)N[C@@H](C)C(=O)N[C@@H](CCC(N)=O)C(=O)N[C@@H](CC(=O)O)C(=O)N[C@@H](Cc1ccccc1)C(=O)N[C@H](C(=O)N[C@@H](CCC(N)=O)C(=O)N[C@@H](Cc1c[nH]c2ccccc12)C(=O)N[C@@H](CC(C)C)C(=O)N[C@@H](CC(C)C)C(=O)N[C@@H](CC(=O)O)C(=O)NCC(=O)NCC(=O)N1CCC[C@H]1C(=O)N[C@@H](CO)C(=O)N[C@@H](CO)C(=O)NCC(=O)N[C@@H](C)C(=O)N1CCC[C@H]1C(=O)N1CCC[C@H]1C(=O)N1CCC[C@H]1C(=O)N[C@@H](CO)C(N)=O)C(C)C)C(=O)O` [Peptide 20] was tested. Which “binding Span” value (GCGR [1]) did it give?
The value was 4.68 ± 2.95 % WT.

And the IC50 (GCGR [1]; [9])?
Its IC50 is 1.51 nM.

What about the “binding Span” value (GCGR [2]) of the same compound?
Its value is 4.34 ± 3.92 % WT.

What about the IC50 (GCGR [2]; [9]) of the same compound?
Its IC50 is 0.457 nM.

And the IC50 (GCGR [3])?
Its IC50 is 25.7 nM.

And the “binding Span” value (GCGR [4])?
Its value is 130.88 ± 9.06 % WT.

What about the IC50 (GCGR [4]; [9]) of the same compound?
The IC50 was 182 nM.

What about the “binding Span” value (GCGR [5]) of the same compound?
Its value is 135.17 ± 6.41 % WT.

What about the IC50 (GCGR [5]; [9]) of the same compound?
The IC50 was 132 nM.

And the “binding Span” value (GCGR [6])?
The value was 32.87 ± 3.34 % WT.

And the IC50 (GCGR [6]; [9])?
Its IC50 is 69.2 nM.

What about the “binding Span” value (GCGR [7]) of the same compound?
Its value is 2.08 ± 2.48 % WT.

What about the IC50 (GCGR [7]; [9]) of the same compound?
Its IC50 is 1.15 nM.

What about the “reduction of potency (cAMP) by receptor mutation” value (GCGR [8]) of the same compound?
The value was 93 fold.

— article PMC8881610 (Nature Communications, 2022)
